The values below come from patent publication US20100015249A1, “Antitumor agent containing 6'-amidino-2'-naphthyl 4-guanidinobenzoate or salt thereof” (priority 2005, published 2010).

In one data set the test system is NF-κB. Nature of the data set: Gel shift assay of gemcitabine-induced NF-κB activation. The format is cell-based, human. The following applies: MDAPanc-28, pretreatment 3 hours then gemcitabine 3 hours. As to the method: At the same time, the present inventors also made a comparison with the other NF-κB inhibitors PS1145 and PS341. […] Subsequently, a gel shift assay was performed to examine the effect on NF-κB activation.

The subject of another data set is Murine fiber cells. In words: Effect on survival rate of normal cells. The format is cell-based. The settings on record: concentrations under which apoptosis was induced in cells. From the text:
Therefore, the present inventors next examined the effect of FUT treatment on normal cells. Murine fiber cells were used as normal cells.

Data set [1] relates to human pancreas cancer cell line MDAPanc-28. In words: MTT assay of cell survival rate / living cell ratio. It is filed as cell-based. The settings on record: MDAPanc-28, single agent, MTT. The procedure: The present inventors examined the concomitant effect of FUT and TNF-α on apoptosis in cancer cells. After treatment with TNF-α for 24 hours, the human pancreas cancer cell line MDAPanc-28 was further cultured for 24 hours with various concentrations of FUT being added. Cells prepared were then subjected to an MTT assay according to the method generally known to calculate the cell survival rates. Also, DNA was extracted to perform a DNA fragmentation assay.
More specifically, with regard to the MTT assay, each well was seeded with 2000 cells per 100 μl of culture medium in a 96-well microtiterplate, followed by the above mentioned treatment. After plate centrifugation, each well received 5 mg/ml of MTT (Sigma) PBS solution instead of culture medium and was incubated for 4 hours at 37° C. After removing the supernatant, 100 μl of DMSO were added to dissolve the cells. The absorbance of the samples was measured at 570 nm by using a microplate reader. 8 wells were subjected to the same condition in this experiment. Two independent experiments were performed, and the average was calculated.
However, the agents are of different types with different mechanisms of action. Therefore, the present inventors examined the effect of each agent on the living cell ratio in the human pancreas cancer cell line MDAPanc-28 singularly. After being treated with each agent for 24 hours and 48 hours, the human pancreas cancer cell line MDAPanc-28 was subjected to a MTT assay. The MTT assay was performed by the method described in Example 9.

The test system is the same in data set [2]. Nature of the data set: Apoptosis ratio by flow cytometry (propidium iodide, FACScan). It is filed as cell-based. The settings on record: for apoptosis induction in combination with gemcitabine: MDAPanc-28, pretreatment with the agent 3 hours then gemcitabine 48 hours, compared with gemcitabine alone. As to the method:
The present inventors next examined the effect of these agents on apoptosis induction in the human pancreas cancer cell line MDAPanc-28. […] Flow cytometry was used to confirm the occurrence of apoptosis. Cells were collected after treatments with the agents and fixed in 70% ethanol at −20° C. for 24 hours. After rinsing with PBS, cells were suspended in PBS containing 50 μg/ml of propium iodide, 0.1% Triton X-100, 0.1% sodium citrate and 1 μg/ml of DNase free RNase. The samples were incubated at room temperature for 30 minutes and the amount of DNA was measured by using FACScan.

Data set [3] can be described thus: Body weight of Panc-1 transplanted nude mice after treatment. The format is in vivo. The settings on record: Panc-1 s.c., 6 weeks treatment, gemcitabine 100 mg/kg once a week i.p., FUT-175 30 mg/kg three times a week i.p. As to the method: (§1) Tumor volume, the body weight and extirpated tumor weight were measured and pictures were taken for each group of mice.
Data set [4] concerns human pancreas cancer cell line Panc-1. In words: Subcutaneous Panc-1 transplant in nude mice: tumor volume and weight. The settings on record: Panc-1 s.c., 6 weeks treatment, gemcitabine 100 mg/kg once a week i.p., FUT-175 30 mg/kg three times a week i.p. The format is in vivo. As to the method:
as §1

Data set [5] deals with human pancreas cancer cell line MDAPanc-28. In words: DNA fragmentation assay (apoptosis). The following applies: MDAPanc-28, TNF-α 5 ng/ml 24 hours, then with or without FUT 24 hours. It is filed as cell-based. As to the method: After adding 1000 U/ml of protease K, the sample was further incubated for 5 hours at 50° C. After extracting DNA with phenol/chloroform/isoamyl alcohol, isopropanol and ammonium acetate were added to the collected water-soluble fractions in order to collect precipitates. The precipitates were then rinsed with 70% ethanol and dissolved in Tris-EDTA buffer. Electrophoresis was performed on a 2% agarose gel and DNA bands were confirmed by using ethidium bromide. The present inventors examined the concomitant effect of FUT and TNF-α on apoptosis in cancer cells. After treatment with TNF-α for 24 hours, the human pancreas cancer cell line […]-28 was further cultured for 24 hours with various concentrations of FUT being added. Cells prepared were then subjected to an MTT assay according to the method generally known to calculate the cell survival rates. Also, DNA was extracted to perform a DNA fragmentation assay. More specifically, with regard to the MTT assay, each well was seeded with 2000 cells per 100 μl of culture medium in a 96-well microtiterplate, followed by the above mentioned treatment. […] The absorbance of the samples was measured at 570 nm by using a microplate reader. […] Two independent experiments were performed, and the average was calculated. […]

Turning to `CC(C)C[C@H](NC(=O)[C@H](Cc1ccccc1)NC(=O)c1cnccn1)B(O)O` [PS341], in the data set on NF-κB, the “effect on gemcitabine-induced activation of NF-κB” value is on record as “showed a similar trend”. In addition, the “survival rate of normal cells” value in the data set with Murine fiber cells is given as “significantly decreased the survival rate of normal cells”. In data set [1], the “inhibitory effect on proliferation, 24-hour treatment” value is recorded as “no significant inhibitory effect on proliferation” and the “inhibitory effect on proliferation, 48-hour treatment” value was “no significant inhibitory effect on proliferation”. Besides, in data set [2], the “apoptosis induction in combination with gemcitabine” value was “further enhanced the effect on apoptosis induction”.

In the case of `O=C(Nc1cc(Cl)cc2c1[nH]c1cnccc12)c1cccnc1` [PS1145], the “effect on gemcitabine-induced activation of NF-κB” value in the data set on NF-κB was “showed a similar trend”. Besides, the “survival rate of normal cells” value with Murine fiber cells is listed as “significantly decreased the survival rate of normal cells”. Moreover, in data set [1], the “inhibitory effect on proliferation, 24-hour treatment” value was “did not show any significant inhibitory effect” and the “inhibitory effect on proliferation, 48-hour treatment” value was “concentration-dependent inhibitory effect on proliferation”. In data set [2], the “apoptosis induction in combination with gemcitabine” value is “further enhanced the effect on apoptosis induction”.

Turning to `Nc1ccn([C@@H]2O[C@H](CO)[C@@H](O)C2(F)F)c(=O)n1` [gemcitabine], in data set [3], the “body weight of mice after administration” value is given as “showed weight reduction”. Also, in data set [4], the “Extirpated tumor weight, level of the control” value is “approximately 50%” and the “Tumor volume, level of the control” value is “approximately 50%”. For the same compound, the “apoptosis induction, single agent” value in data set [2] (MDAPanc-28, gemcitabine alone for 48 hours) is listed as “induced apoptosis”.

As to TNF-α, the DNA fragmentation entry in data set [5] is “showed no DNA fragmentation”.
